In ChEMBL document CHEMBL1142568, “Cytotoxic hydroxylated triterpene alcohol ferulates from rice bran” (J Nat Prod, 2005) one finds IC50 data, which are given here for five compounds.

What is called IC50 is the concentration needed to halve the response being measured. A lower IC50 goes with greater potency.

The experiment concerns MCF7. Kind of experiment: Cytotoxicity against human MCF7 cells after 72 hrs by MTT assay. It counts as functional, cell-based. Particulars: MCF7, 72 h.

Molecules are shown by their SMILES.

For `COc1cc(/C=C/C(=O)O[C@H]2CC[C@]34C[C@]35CC[C@]3(C)[C@@H]([C@H](C)C/C=C\C(C)(C)O)CC[C@@]3(C)[C@@H]5CC[C@H]4C2(C)C)ccc1O`, the IC50 is 79 µM.

Turning to `C=C(C)[C@@H](O)CC[C@@H](C)[C@H]1CC[C@@]2(C)[C@@H]3CC[C@H]4C(C)(C)[C@@H](OC(=O)/C=C/c5ccc(O)c(OC)c5)CC[C@@]45C[C@@]35CC[C@]12C`, the IC50 came out at 283 µM.

With `COc1cc(/C=C/C(=O)O[C@H]2CC[C@]34C[C@]35CC[C@]3(C)[C@@H]([C@H](C)CCC=C(C)C)CC[C@@]3(C)[C@@H]5CC[C@H]4C2(C)C)ccc1O` [GAMMA ORYZANOL], 80 µM corresponded to half-maximal inhibition (IC50).

Take `C=C(CC[C@@H](C)[C@H]1CC[C@@]2(C)[C@@H]3CC[C@H]4C(C)(C)[C@@H](OC(=O)/C=C/c5ccc(O)c(OC)c5)CC[C@@]45C[C@@]35CC[C@]12C)C(C)C`: half-maximal inhibition (IC50) was put at 27 µM.

As for `C=C(C)[C@H](O)CC[C@@H](C)[C@H]1CC[C@@]2(C)[C@@H]3CC[C@H]4C(C)(C)[C@@H](OC(=O)/C=C/c5ccc(O)c(OC)c5)CC[C@@]45C[C@@]35CC[C@]12C`, the midpoint of inhibition, the IC50, lay at 42 µM.
